This note sets out measurements from a melting point compilation (Tetko et al.; mined from patent text by program, amines drawn as free bases though some values may be those of a salt).

Residues, ends and D or L forms follow the SMILES beside them. *: point of attachment. NHPhenethyl = c1ccc(CCN*)cc1; Cbz = O=C(OCc1ccccc1)*

Compound `O=C(NC1CCN(C2CCCCC2)C1)c1cc([N+](=O)[O-])cc([N+](=O)[O-])c1` (stereo unspecified) gave a melting point of 159 to 161 °C. `CN(Cc1cc2c(=O)c(C(=O)NCc3ccc(Cl)cc3)cn(C)c2o1)CC(O)c1ccc(-c2ccccc2)o1` (stereo unspecified) had a melting point of 115 to 119 °C.

The compound `O=C(CCCO)c1cccnc1` displayed a melting point of 36 to 37 °C.

`Cc1ccn(-c2ccc(C)c(C(=O)c3cccc4c3Nc3ncccc3CN4)c2)n1` returned a melting point of 138 to 140 °C. For the compound `O=C1Nc2cccnc2Nc2ccsc21`, the melting point is 273 to 279 °C. Under `Cc1cc(-c2[nH]nc3c2C(=O)c2c(NC(N)=O)cccc2-3)c(C)s1` stands above 280 °C; under `CCS(=O)(=O)C(F)(F)c1nnc(OCC(=O)N(C)c2ccccc2)s1`, 103 to 104 °C; under `CN1CCC(=C2c3ccccc3CC(O)c3ccccc32)CC1` (stereo unspecified), 205 to 206 °C.

In turn, `COc1ccc(CN2CCc3ncccc3C2)cc1OC` came in with a melting point of 76 to 77 °C. Under `CC1=NCC2CNC(c3ccccc3F)c3cc(Cl)ccc3N12` (stereo unspecified) stands 108 to 110 °C. Consider `C[C@H]1[C@@H](C(C)(C)O)CCN1c1ccc(C#N)c2sccc12`, for which the melting point lay in the range of 146 to 147 °C. As to `CN1CCC(Nc2ccc([N+](=O)[O-])cc2)CC1`, the melting point was in the range of 153 to 155 °C. The compound `Cc1c(Cl)ccc(Br)c1Cl` yielded a melting point of 32 to 33 °C. Turning to `CCCCCCCCCCCCn1nnc(CN(Cc2ccccc2)C(=O)Nc2c(OC)cc(OC)cc2OC)n1`, the melting point fell in the range of 57 to 59 °C. Compound `CCCCOc1cc2cc(C(=O)OC)c(C(=O)OC)c(-c3ccnc(Cl)c3)c2cc1OC` showed a melting point of 143 to 147 °C. On to `CC12C=CCC1c1ccc3cc(O)ccc3c1CC2` (stereo unspecified), for which the melting point lay within 162 to 163 °C. With `CCOC(=O)c1cnc(SC)nc1NCc1ccc(OC)c(Cl)c1` the figure was 82 to 83 °C; with `CCSc1nc2c(C)ccnc2n1Cc1ccc(C2(Br)CC(C#N)=CN2C)cc1` (stereo unspecified), 161 to 163 °C; with `O=C(O)c1cc([N+](=O)[O-])cc2c1Nc1ccc(CCc3ccc(Cl)c(Cl)c3)cc1O2`, above 250 °C. `C#CC(OC)c1cc(C(C)(C)C)cc(C(C)(C)C)c1OC` (stereo unspecified) returned a melting point of 68 to 70 °C. With `COc1ncc(Br)c2nc(S(=O)(=O)Nc3c(Cl)cccc3Cl)nn12` the figure was 196 to 198 °C; with `CN1C(=O)C(c2cccc(C#Cc3ccccc3)c2)(c2cc(C=O)n(CCCF)c2)N=C1N` (stereo unspecified), 85 to 90 °C. As to `Cc1cccc(NC(=O)CS)c1`, the melting point fell in the range of 58 to 60 °C.

As for `COC(=O)Cc1ccc(C(=O)c2ccccc2)n1C`, the melting point was 96 to 98 °C. Regarding `CCOC(=O)CC[C@H](NC(=O)c1ccc([N+](=O)[O-])cc1Cl)C(=O)OCC`, the melting point was in the range of 95 to 96 °C.

`CC(C)(C)Sc1cccc(C(F)(F)F)c1S(N)(=O)=O`: the melting point was 91 °C.

In turn, `COc1ccc(C2(O)CCCN(Cc3ccccc3)C2)cc1` (stereo unspecified) registered a melting point of 58 °C. As for `COc1cc(Cc2cnc(NC(=O)Cc3ccccc3)nc2N)cc(OC)c1OC`, the melting point lay within 181 to 183 °C. With `O=C(CCl)NC1CCc2ccccc2C1=O` (stereo unspecified) the figure was 118 to 122 °C. Take `[N-]=[N+]=NC1CC(n2cc(C(I)=CI)c(=O)[nH]c2=O)OC1COC(c1ccccc1)(c1ccccc1)c1ccccc1` (stereo unspecified): the melting point is 139 °C.

In turn, `FC(F)(F)c1cc(Cl)c(Oc2cc(-c3ccc(Cl)cc3)[nH]n2)c(Cl)c1` yielded a melting point of 181 to 183 °C. Under `O=C(O)c1ccc(CO/N=C/c2cc3ccccc3n2Cc2ccccc2)cc1Br` stands 148 to 149 °C. As to `COC(=O)C1Oc2ccc(Cl)cc2C(c2ccccc2)(C(C)(C)C)O1` (stereo unspecified), the melting point was determined as 85 °C. In turn, `NC(=NOC(=O)c1ccccc1)c1nc(Cl)c(Cl)[nH]1` returned a melting point of 177 to 178 °C. Under `COC(=O)C(=C1NCCCS1)[N+](=O)[O-]` stands 107 to 108 °C; under `COc1ccc(-c2ccc3[nH]c(=O)ccc3c2)cn1`, 248 to 252 °C. Under `COC(=O)COc1cccc2c(CCO)c(CCOC(C)=O)oc12` stands 80 to 81 °C; under `COC(=O)C1=C(C)N=C(C)C(C(=O)OC)C(c2ccccc2)C1` (stereo unspecified), 135 to 137 °C. `COc1cc2cc(C(=O)OCc3ccccc3)[nH]c2cn1` returned a melting point of 182 °C.

`O=Cc1cc(C2CC2)nn1Cc1ccc(C(F)(F)F)cc1Cl`: the melting point lay in the range of 94 to 96 °C.

Take `COc1ccc(O)c(C(=O)NCCc2ccc([N+](=O)[O-])cc2)c1`: the melting point stood at 200 °C.

The compound `Cc1c(CC2CCc3c(c4ccccc4n3C)C2=O)ncn1C(c1ccccc1)(c1ccccc1)c1ccccc1` (stereo unspecified) displayed a melting point of 193 to 195 °C.

`CC#CC(Cc1ccccc1)n1nnc2cc3c(cc2c1=O)OC1CCCN1C3=O` (stereo unspecified): the melting point was 160 to 162 °C. `Brc1cnn2ccc(N3CCNCC3)nc12` came in with a melting point of 108 to 109 °C. Compound `CCCN(Cc1ccc(-c2ccccc2-c2nc(=O)o[nH]2)cc1)c1nc(C)ncc1C(=O)O` showed a melting point of 182 to 186 °C. In turn, `Cc1ccc(C(=O)Nc2nccc(-c3c(-c4cccc(C)c4)nc4cccnn34)n2)cc1` had a melting point of 211 to 212 °C.

Take `CCc1cn(C2OC(CN=[N+]=[N-])C(O)C2F)c(=O)[nH]c1=O` (stereo unspecified): the melting point is 185 to 188 °C. With `CCOC(=O)Nc1cc(OCC)cc2c1CC(C)O2` (stereo unspecified), the melting point was found to be 64 °C.

Regarding `O=C(NC(=O)c1c(F)cccc1F)Nc1cc(C(F)(F)F)c(F)cc1Cl`, the melting point worked out at 192 °C. `COc1cc(OC)c(-c2cc3ccccc3n2C(=O)OC(C)(C)C)cc1/C=C/C(=O)c1ccc(S(N)(=O)=O)cc1` came in with a melting point of 120 to 122 °C. `CCCCc1cc(OCc2ccc(-c3ccccc3C(=O)O)cc2)c2ccccc2n1` showed a melting point of 145 °C. Regarding `c1ccc2c(c1)c1ccccc1n2-c1ccc2c(c1)Sc1ccc(-n3c4ccccc4c4ccccc43)cc1S2`, the melting point was found to be 350 °C.

Compound `CN1CCC(=C2c3ccccc3Oc3ccc(C(F)(F)F)cc32)CC1` registered a melting point of 82 to 83 °C.

Compound `CCOC(=O)c1c(CN(CC)CC)nc2sc3c(c2c1-c1ccc(OC)c(OC)c1)CCN(C(=O)c1ccccc1)C3` came in with a melting point of 86 to 87 °C. The compound `CCN1CCc2ccc(Nc3ncc(Cl)c(N[C@@H]4c5ccccc5C[C@@H]4O)n3)cc2CC1` returned a melting point of 209 °C.

`O=[N+]([O-])c1ccc(OCC(O)CO)c(O)c1` (stereo unspecified) came in with a melting point of 162 °C.

In turn, `Cc1cccc(C)c1N1C(=N)N(c2cccc(C(F)(F)F)c2)CC1C` (stereo unspecified) yielded a melting point of 95 to 98 °C. Regarding `CNc1ccccc1C(=O)NCCCn1cncn1`, the melting point lay in the range of 131 to 133 °C. Turning to `CN1CCN(c2cccc(-c3cnn4cc(C(=O)O)cnc34)c2)CC1`, the melting point lay in the range of 274 to 281 °C. In turn, `OCC(CO)n1nnnc1S` yielded a melting point of 138 °C. `COc1ccc(-n2c(=O)c3c(Cc4ccccc4)n[nH]c3c3cccnc32)cc1` showed a melting point above 320 °C.

As to `O=c1[nH]nccc1NCCCNCCOc1cccc2c1OCCO2`, the melting point was in the range of 118 to 120 °C. Regarding `O=C(O)c1ccc(-c2cnc3[nH]c(=O)n(CC4CCCCC4)c3n2)cc1`, the melting point was above 350 °C. Under `CC(C)(C)OC(=O)CC1=CCC(=O)Nc2ccccc21` stands 136 to 138 °C; under `CN1CC(c2ccc(S(C)(=O)=O)cc2)=C(c2ccc(F)cc2)C1=O`, 111 °C; under `O=c1[nH]c2cc(C(F)(F)F)ccc2n1C1CCNCC1`, 198 °C. As to `COc1ccc(OCC(=O)O)c2c(=O)c3ccccc3sc12`, the melting point was 223 to 225 °C.

`CCOc1ccc(CCNC(=O)C(F)(F)F)cc1S(=O)(=O)N=CN(C)C` had a melting point of 145 °C. Compound `COc1ccc(-c2n[nH]c(-c3cccc(C(=O)O)c3)n2)cc1` displayed a melting point of 287 to 289 °C. As to `CN(CCNC(=O)NCCCOc1cccc(CN2CCCCC2)c1)CCC(c1ccc(F)cc1)c1ccccn1` (stereo unspecified), the melting point is 111 to 115 °C.

`C=CCNC(=O)c1c([Si](C)(C)C)sc2ccccc12` yielded a melting point of 72 to 75 °C. Turning to `CCC(Cc1ccc(OCCN2CCOCC2)cc1)(C(=O)NO)S(=O)(=O)c1ccc(OC)cc1` (stereo unspecified), the melting point was 51 °C. Consider `Cc1cc(C)c(C)c(P(=O)(c2ccc(F)cc2)c2ccc(F)cc2)c1C`, for which the melting point was in the range of 171 to 173 °C. On to `O=C(c1ccc(Oc2ccccc2)cc1)c1cccc(C(=O)c2ccc(Oc3ccccc3)cc2)c1`, for which the melting point fell in the range of 117 to 119 °C. With `Nc1ncnc2c1ncn2[C@@H]1O/C(=C\F)[C@@H](O)[C@H]1O`, the melting point was 225 to 230 °C. With `COc1ccc(OCc2cccc(OCc3ccc4ccccc4n3)c2)c(C(=O)O)c1` the figure was 248 to 249 °C; with `CNC(=O)n1nc(Oc2ccc(C(F)(F)F)cc2[N+](=O)[O-])c(C)c1C`, 117 to 119 °C; with `CC(C)(CCc1noc(=O)[nH]1)c1ccc(C(=O)Nc2cn3cc(-n4ccnc4)ccc3n2)cc1`, 283 to 284 °C. With `COc1cc(COc2nc(-c3ccccc3)ncc2C(=O)O)ccc1OCc1nc(-c2ccco2)oc1C` the figure was 163 to 164 °C; with `Cc1cccc2c1C(=O)c1cc(CC(=O)O)ccc1OC2`, 183 to 185 °C; with `CCCCc1nc([N+](=O)[O-])c(CO)n1Cc1ccc(-c2ccccc2C(=O)O)cc1`, 204 to 206 °C. Under `CCC(Oc1ncn(-c2ccc(Cl)c(Cl)c2)n1)C(=O)O` (stereo unspecified) stands 232 to 234 °C. Turning to `NC(=O)CC(NC(=O)C(CO)NC(=O)CNC(=O)CNC(=O)OCc1ccccc1)C(=O)NC(Cc1ccccc1)C(=O)NCCc1ccccc1` (stereo unspecified) (Cbz-GGSNF-NHPhenethyl; configuration not given here), the melting point was in the range of 225 to 229 °C.

On to `N#Cc1ccc2c(c1)[C@@H](OC1=CC(=O)CC1)[C@H](O)C(CF)(CF)O2` (relative stereo), for which the melting point fell in the range of 200 to 201 °C. With `CC(C)NC(=O)c1c(NC(=O)c2cc(C(F)(F)F)nn2-c2ncccc2Cl)c(Br)cc2cn[nH]c12` the figure was 189 to 190 °C.

Take `CCCCC1(N(C)C)CCC(c2[nH]c3ccccc3c2CC2CCCCC2)CC1` (stereo unspecified): the melting point lay in the range of 155 to 165 °C.

For orientation: melting point means the temperature of the solid-liquid transition.
